Assay results taken from patent US20260285850A1, “SUBSTITUTED OXAZOLIDINONES AND IMIDAZOLINONES AS HERBICIDES” (FMC CORPORATION, priority 2023, published 2026).

Key:
Format in all cases: in vivo
[1] = tested on: barnyardgrass (Echinochloa crus-galli); test: Test A preemergence soil spray, visual injury rating 0-100; conditions: 10 days, 0 = no effect, 100 = complete control
From the text: (§1) Seeds of plant species selected from barnyardgrass (Echinochloa crus-galli), blackgrass (Alopecurus myosuroides), corn (Zea mays), foxtail, giant (giant foxtail, Setaria faberi), green foxtail (Setaria viridis), goosegrass (Eleusine indica), kochia (Bassia scoparia), oat, wild (wild oat, Avena fatua), palmer (palmer amaranth, palmer pigweed, Amaranthus palmeri), ragweed (common ragweed, Ambrosia artemisiifolia), ryegrass, Italian (italian ryegrass, Lolium multiflorum), soybean (Glycine max) and wheat (Triticum aestivum) were planted into a blend of loam soil and sand and treated preemergence with a directed soil spray using test chemicals formulated in a non-phytotoxic solvent mixture which included a surfactant.
(§2) At the same time, plants selected from these crops and weed species and also galium (catchweed bedstraw, Galium aparine) and horseweed (Erigeron canadensis) were planted in pots containing the same blend of loam soil and sand and treated with postemergence applications of test chemicals formulated in the same manner. Plants ranged in height from 2 to 10 cm and were in the one- to two-leaf stage for the postemergence treatment. Treated plants and untreated controls were maintained in a greenhouse for 10 days, after which time all treated plants were compared to untreated controls and visually evaluated for injury. Plant response ratings, summarized in Table A, are based on a 0 to 100 scale where 0 is no effect and 100 is complete control. A dash (-) response means no test result.

[2] = tested on: blackgrass (Alopecurus myosuroides); test: as above; conditions: 10 days, 0 = no effect, 100 = complete control
From the text: as §1, §2

corn (Zea mays) [3] = test: as above; conditions: 10 days, 0 = no effect, 100 = complete control
From the text: as §1, §2

kochia (Bassia scoparia) [4] = test: as above; conditions: 10 days, 0 = no effect, 100 = complete control
From the text: as §1, §2

[5] = tested on: oat, wild (wild oat, Avena fatua); test: as above; conditions: 10 days, 0 = no effect, 100 = complete control
From the text: as §1, §2

[6] = tested on: palmer (palmer amaranth, palmer pigweed, Amaranthus palmeri); test: as above; conditions: 10 days, 0 = no effect, 100 = complete control
From the text: as §1, §2

[7] = tested on: ragweed (common ragweed, Ambrosia artemisiifolia); test: as above; conditions: 10 days, 0 = no effect, 100 = complete control
From the text: as §1, §2

[8] = tested on: ryegrass, Italian (italian ryegrass, Lolium multiflorum); test: as above; conditions: 10 days, 0 = no effect, 100 = complete control
From the text: as §1, §2

soybean (Glycine max) [9] = test: as above; conditions: 10 days, 0 = no effect, 100 = complete control
From the text: as §1, §2

[10] = tested on: wheat (Triticum aestivum); test: as above; conditions: 10 days, 0 = no effect, 100 = complete control
From the text: as §1, §2

[11] = tested on: barnyardgrass (Echinochloa crus-galli); test: Test A postemergence application, visual injury rating 0-100; conditions: Postemergence
From the text: as §1, §2

[12] = tested on: blackgrass (Alopecurus myosuroides); test: as above; conditions: Postemergence
From the text: as §1, §2

corn (Zea mays) [13] = test: as above; conditions: Postemergence
From the text: as §1, §2

[14] = tested on: galium (catchweed bedstraw, Galium aparine); test: as above; conditions: Postemergence
From the text: as §1, §2

[15] = tested on: horseweed (Erigeron canadensis); test: as above; conditions: Postemergence
From the text: as §1, §2

kochia (Bassia scoparia) [16] = test: as above; conditions: Postemergence
From the text: as §1, §2

[17] = tested on: oat, wild (wild oat, Avena fatua); test: as above; conditions: Postemergence
From the text: as §1, §2

[18] = tested on: palmer (palmer amaranth, palmer pigweed, Amaranthus palmeri); test: as above; conditions: Postemergence
From the text: as §1, §2

[19] = tested on: ragweed (common ragweed, Ambrosia artemisiifolia); test: as above; conditions: Postemergence
From the text: as §1, §2

[20] = tested on: ryegrass, Italian (italian ryegrass, Lolium multiflorum); test: as above; conditions: Postemergence
From the text: as §1, §2

soybean (Glycine max) [21] = test: as above; conditions: Postemergence
From the text: as §1, §2

[22] = tested on: wheat (Triticum aestivum); test: as above; conditions: Postemergence
From the text: as §1, §2

[23] = 31 g ai/ha, greenhouse 10 days, 0 no effect, 100 complete control
[24] = 125 g ai/ha, 10 days, 0 is no effect, 100 is complete control

CC1(C(=O)NC2CC=C(C(=O)NS(=O)(=O)C3CC3)C2)CN(c2cc(Cl)cc(Cl)c2)C(=O)O1 (centres unmarked) [Compound 75]
50: Kochia plant response rating (0-100) (kochia (Bassia scoparia) [4]; 31 g ai/ha) | Amaranth, Palmer plant response rating (0-100) ([6]; 31 g ai/ha) | Ryegrass, Italian plant response rating (0 to 100 scale) [20, 23] | Soybean plant response rating (0 to 100 scale) (soybean (Glycine max) [21]; [24])
40: Blackgrass plant response rating (0 to 100 scale) ([2]; 125 g ai/ha) | Wheat plant response rating (0 to 100 scale) ([10]; 125 g ai/ha) | Galium plant response rating (0 to 100 scale) [14, 23] | Horseweed plant response rating (0 to 100 scale) [15, 23]
70: Ryegrass, Italian plant response rating (0 to 100 scale) ([8]; 125 g ai/ha) | Corn plant response rating (0 to 100 scale) (corn (Zea mays) [13]; [23]) | Horseweed plant response rating (0 to 100 scale) [15, 24] | Amaranth, Palmer / Pigweed, Palmer plant response rating (0 to 100 scale) [18, 23] | Ryegrass, Italian plant response rating (0 to 100 scale) [20, 24] | Wheat plant response rating (0 to 100 scale) [22, 23]
90: Kochia plant response rating (0 to 100 scale) (kochia (Bassia scoparia) [4]; 125 g ai/ha) | Amaranth, Palmer plant response rating (0 to 100 scale) ([6]; 125 g ai/ha) | Barnyardgrass plant response rating (0 to 100 scale) [11, 24] | Corn plant response rating (0 to 100 scale) (corn (Zea mays) [13]; [24]) | Oat, Wild plant response rating (0 to 100 scale) [17, 24] | Amaranth, Palmer / Pigweed, Palmer plant response rating (0 to 100 scale) [18, 24]
30: Soybean plant response rating (0-100) (soybean (Glycine max) [9]; 31 g ai/ha)
80: Barnyardgrass plant response rating (0 to 100 scale) ([1]; 125 g ai/ha) | Barnyardgrass plant response rating (0 to 100 scale) [11, 23] | Blackgrass plant response rating (0 to 100 scale) [12, 24] | Galium plant response rating (0 to 100 scale) [14, 24] | Kochia plant response rating (0 to 100 scale) (kochia (Bassia scoparia) [16]; [23]) | Kochia plant response rating (0 to 100 scale) (kochia (Bassia scoparia) [16]; [24]) | Wheat plant response rating (0 to 100 scale) [22, 24]
0: Barnyardgrass plant response rating (0-100) ([1]; 31 g ai/ha) | Corn plant response rating (0-100) (corn (Zea mays) [3]; 31 g ai/ha) | Corn plant response rating (0 to 100 scale) (corn (Zea mays) [3]; 125 g ai/ha) | Oat, Wild plant response rating (0-100) ([5]; 31 g ai/ha) | Oat, Wild plant response rating (0 to 100 scale) ([5]; 125 g ai/ha) | Ragweed plant response rating (0 to 100 scale) ([7]; 125 g ai/ha) | Wheat plant response rating (0-100) ([10]; 31 g ai/ha) | Blackgrass plant response rating (0 to 100 scale) [12, 23] | Ragweed plant response rating (0 to 100 scale) [19, 23]
60: Ragweed plant response rating (0 to 100 scale) [19, 24]
20: Blackgrass plant response rating (0-100) ([2]; 31 g ai/ha) | Soybean plant response rating (0 to 100 scale) (soybean (Glycine max) [21]; [23])
10: Ragweed plant response rating (0-100) ([7]; 31 g ai/ha) | Ryegrass, Italian plant response rating (0-100) ([8]; 31 g ai/ha) | Soybean plant response rating (0 to 100 scale) (soybean (Glycine max) [9]; 125 g ai/ha) | Oat, Wild plant response rating (0 to 100 scale) [17, 23]
